# Read-outs that look alike come from different tables or passages of the source.
# What was measured:
# [1] = In vivo pharmacokinetic analysis (plasma); conditions: female, Balb/C, mouse, mice, read-out: Plasma half-life t1/2 (converted)
# Procedure: Age 8 to 9 weeks Balb/C female mice were used for this study. The mice were maintained in a special pathogen-free environment and in disposable cages. Animal room was set to maintain temperature and relative humidity at 23° C.±3° C. and 55%±15%, respectively. Housing room was on a 12:12 light/dark cycle. Water was supplied ad libitum to each cage via water bottles. All mice were fed rodent diet with 18% protein. All animals were weighed before commencement of the study.
# Compound 1 was stored at 4° C. protected from light. Dosing solutions were used within 2 hours of preparation. Compound 1 was formulated within 2 hours prior to dosing by adding the pre-calculated volume of PEG 400 (40% of total solution volume). Formulated compound 1 was vortexed and sonicated until a clear solution was formed. To this clear formulation, saline (60% of total solution volume) was added and vortexed until a clear solution was formed. The Compound 1 solution was filtered using a sterile syringe filter (0.2 μm coming filter). All Compound 1 solutions were mixed thoroughly prior to pulling up into syringes and prior to dosing. 12 mice were dosed intravenously at 5 mg/kg. 12 mice were dosed intraperitoneally at 10 mg/kg. 12 mice were dosed orally at 10 mg/kg. Animals were sacrificed for blood and organs sampling. Under isoflurane anesthesia, blood was collected via retro-orbital route. Blood samples were then centrifuged for 5 minutes at a minimum of 2,000×g. Plasma supernatant (a minimum of 50 μL or as much as feasible to collect) was collected. Plasma was stored at −80° C.
# Bioanalytical analysis of plasma levels of Compound 1 was performed by mass spectrometry. Calibration standards were prepared by spiking the test compound into blank plasma. Calibrator concentrations were 5,000, 2,000, 1,000, 200, 100, 20, 10, 2 and 1 ng/mL. Calibration standard samples were processed along with the test samples.
# Twenty μL aliquots of plasma test samples were treated with 100 μL of methanol: acetonitrile (5:95 v:v) containing internal standard (12.5 ng/mL verapamil). The mixtures were vortexed on a shaker for 15 minutes and subsequently centrifuged at 4,000 rpm for 15 minutes. An aliquot of 50 μL of the supernatant was mixed with 100 μL of water with 0.1% formic acid for injection to the LC/MS/MS (liquid chromatography/tandem-mass spectrometry).
# The concentration of Compound 1 was determined by a UPLC-TIS-MS-MS method (ultra performance liquid chromatography—turbo ion spray—tandem mass spectrometry). The UPLC comprised a Shimadzu LC-30AD HPLC (high performance liquid chromatography). Chromatographic separation was achieved using a Waters UPLC column (Acquity UPLC BEH C18, 50×2.1 mm, 1.7 μM). Mobile phase A was water with 0.1% formic acid; mobile phase B was acetonitrile with 0.1% formic acid. The gradient program was as follows: 20% B (0-0.2 min), 20-95% B (0.2-1.2 min), 95% B (1.2-1.8 min), 95-20% B (1.81-2.2 min). The flow rate was 0.6 mL/minute. The column was maintained at 50° C.
# Mass spectrometric analysis was performed using an AB Sciex API5000 with Turbo Ion Spray interface operating in a positive ionization mode. Quantification was performed using multiple reaction monitoring (MRM) method with the transitions of (m/z) 316.104→(m/z) 219.014 for Compound 1 and (m/z) 455.346→(m/z) 165 for verapamil (internal standard). Pharmacokinetics of Compound 1 ((E)-1-(3-(8-methoxy-2,3-dihydrobenzo[b][1,4]dioxin-6-yl)acryloyl)-5,6-dihydropyridin-2(1H)-one) in the plasma of the mice dosed intravenously (IV; 5 mg/kg), intraperitoneally (IP; 10 mg/kg) and orally (PO; 10 mg/kg) (n=3 per time point) is illustrated in FIG. 1.
# [2] = tested on: multiple myeloma (MOLP-8) cells; test: In vitro cell viability assay (CellTiter-Glo, ATP levels); type: cell-based; conditions: Homo sapiens, MOLP-8, 168 h, 7-day incubation, average IC50
# Procedure: (§1) The present disclosure provides a method for inhibiting cell viability, as measured by ATP levels. The method for inhibiting cell viability is drawn to contacting various cancer cells with the compounds described herein at various concentrations. The cancer cell lines were maintained in culture conditions at 37° C. in an atmosphere of 5% CO2 in air. The cells growing in an exponential growth phase were harvested and counted for plating. Compounds were incubated in two cancer cell types representing multiple myeloma (MOLP-8) and triple negative breast cancer (DU4475). Cells were plated at an optimized cell numbers per well in 96-well plates and allowed to attach to the plates overnight at approximately 80% confluency.
# (§2) After addition of compounds, plates were incubated for 7-day. At the end of incubation period on day 8, media was removed and replaced with a solution of CellTiter-Glo™ reagent (Promega®) according to protocol. Luminescence was read using an EnVision® multi-label plate reader (Perkin-Elmer®), and signal intensity was calculated relative to positive and negative control wells. Cisplatin was included as the positive control. A dose-response calculation was performed in a non-linear regression fit and by using the Hill equation to calculate a concentration-response curve and 50% inhibitory concentration (IC50) values for each compound. […]
# [3] = tested on: triple negative breast cancer (DU4475) cells; test: as above; type: cell-based; conditions: Homo sapiens, DU-4475, 168 h, 7-day incubation, average IC50
# Procedure: as §1, §2
# [4] = tested on: collagen-induced arthritis; test: Collagen-induced arthritis in female Lewis rats; type: in vivo; conditions: 3 mg/kg QD PO, vs vehicle control rats
# Procedure: Animals were anesthetized with isoflurane and given intradermal injections of 400 μl (2×200 μl) of Porcine Type II collagen in Freund's incomplete adjuvant spread equally over two sites on the back on study days 0. On day 7, a boost injection was given; intradermal injections of 100 μl of Porcine Type II collagen in Freund's incomplete adjuvant. Collagen was prepared by making a 2 mg/ml solution in 0.01 N Acetic acid. Equal volumes of collagen and Freund's incomplete adjuvant were emulsified by hand mixing with the syringes partially submerged in ice water for 10 minutes, at which point a bead of this material will hold its form when placed in water.
# On study day 6, the animals were randomized by body weight into treatment groups and dosing was initiated.
# Efficacy evaluation was based on animal body weights, ankle caliper measurements, and final hind paw weights. Terminal serum was analyzed for anti-type II collagen antibody (IgG) concentrations.
# The rats were weighed on day 6 for randomization, on day 9, and daily on days 11 through 17.
# Caliper measurements of right and left ankle diameters were taken on study days 9 (baseline) and 11 through 17. Ankle caliper measurements were made with a digital micrometer (Digitrix II; Fowler & NSK). Baseline measurements were taken using one ankle with values rounded to one thousandth of an inch. […]
compound,measurement,setting,value
"COc1cc(/C=C/C(=O)N2CCC=CC2=O)cc2c1OCCO2 [Compound 1, (E)-1-(3-(8-methoxy-2,3-dihydrobenzo[b][1,4]dioxin-6-yl)acryloyl)-5,6-dihydropyridin-2(1H)-one]",half-life,"[1]; plasma, IP, 10 mg/kg",1.14 h
same,half-life,"[1]; plasma, IV, 5 mg/kg",1.66 h
same,half-life,"[1]; plasma, PO, 10 mg/kg",2.16 h
C/C(=C/c1ncccn1)C(=O)N1CCC=CC1=O [Compound 49],IC50,[2],6.11 µM
same,IC50,[3],5.06 µM
CCS(=O)(=O)N1CC(CC#N)(n2cc(-c3ncnc4[nH]ccc34)cn2)C1 [baricitinib],reduction of ankle diameter measurements AUC,[4],72%
same,reduction of final hind-paw weights,[4],71%
"COc1cc(/C=C/C(=O)N2CCC=CC2=O)cc(OC)c1OC [piperlongumine, 1-[(E)-3-(3,4,5-trimethoxyphenyl)prop-2-enoyl]-2,3-dihydropyridin-6-one]",half-life,"[1]; in vivo, IP, 10 mg/kg",1.07 h
same,half-life,"[1]; in vivo, IV, 5 mg/kg",1.26 h
same,half-life,"[1]; in vivo, PO, 10 mg/kg",1.31 h

# — patent publication US20200377510A1, “DERIVATIVES OF PIPERLONGUMINE AND USES THEREOF” (Auransa Inc., priority 2019, published 2020)
